Measured values as given in US20030036514A1, “Compositions and methods for the diagnosis and treatment of psychogenic erectile dysfunction” (priority 2001, published 2003).
Where two headings read alike, the source gives them in different places. dPhe(Cl) = D-phenylalanine carrying a chlorine on the ring; Nle = CCCC[C@H](N)C(=O)O

How the values were obtained:
patients = settings: injection, alone or combined with pheniolamine; cited from earlier work
human male = assay type: in vivo
Experimental: The peptides described herein were prepared by sterile methods to a final concentration of 10 mg of peptide per ml of physiological salina. In addition to a full dose providing 10 mg of the peptide to the individual, doses of 0.1 to 0.3 ml (providing 1 mg to 3 mg of the peptide to each individual) of this stock material were also injected into volunteers, with a dose of 0.1 to 0.2 ml being the most often used dosage.
A dose of 3.75 mg given to volunteers produced a long lasting erection of 4 to 6 hour duration. […] In some, this discomfort was considerable. […] Accordingly, although dosages of from about 1.0 mg to about 10.0 mg show the desired activity according to the present invention, it is preferred that the lower ranges of dosage which bring about the desired erection without undesirable side effects be used. Accordingly, it is preferred that dosages of about 1.5 mg to 2.5 mg of peptide be provided when the route of administration is subcutaneous or intramuscular. With other routes of administration, this range may require adjustment, however, it is still preferred that the lower range of adjusted effective dosages for the selected route of administration be used.
Another of the peptides according to the present invention (Ac-Nle-Asp-His-D-Phe-Cl-Arg-Trp-Lys-Gly-NH2) induced an erection within 60 minutes following administration at a concentration of 2.5 mg. This erection lasted, intermittently, for up to six hours.

castrated dog = test: Erectile response after injection into the castrated dog; assay type: in vivo

Compound: COc1ccc(Cc2nccc3cc(OC)c(OC)cc23)cc1OC [papaverine]
- patients in whom an erection is induced (patients): about 70%

Compound: Ac-Nle-Asp-His-D-Phe-Cl-Arg-Trp-Lys-NH2 [Example II]
- erectile activity (human male; 1.25 mg (smallest dose) subcutaneously, human volunteers): generally no erectile activity was noted
- stomach discomfort (human male; human, in vivo): stomach discomfort was noted
- erectile response (castrated dog; castrated dog first primed with testosterone): did so
- erectile response (castrated dog; castrated dog, not primed): caused no erectile response

Compound: Ac-Nle-Asp-His-D-Phe-Cl-Arg-Trp-Lys-Gly-NH2 ({Ac-Nle-Asp-H2N-dPhe(Cl)}-RWKG-NH2)
- time to erection following administration (human male; 1.25 mg, compared with 2.5 mg, human): took longer to initially occur
- duration of erection (sustained intermittently) (human male; 1.25 mg, human): up to 6 hours
- time to erection following administration (human male; 2.5 mg, human): ≤ 60 min

Compound: Ac-Ser-Tyr-Ser-Nle-Glu-His-D-Phe-Cl-Arg-Trp-Gly-Lys-Pro-Val-NH2 [reference compound]
- erectile response (human male; highest dose administered (about 20 mg), human): did not cause an erectile response
